Experimental data from US20140179786A1, “Treatment of Alzheimer's Disease Using Tolfenamic Acid” (Board of Governors for Higher Education, State of Rhode …, priority 2012, published 2014).

Assays:
tau gene = assay: tau mRNA expression in mouse cortex by real time PCR; assay type: in vivo, mice; details: 0, 5 and 50 mg/kg/day for 34 days; vs control; dose of the value not stated
Procedure: (§1) It has been discovered that tolfenamic acid lowers the levels of the transcription factor Sp1, and consequently reduce the levels of an Sp1 target gene, APP, along with its pathogenic cleavage product Aβ. […] Therefore, in the study design 0, 5 and 50 mg/kg/day tolfenamic acid was administered for 34 days. […] Total mRNA levels were analyzed by real time PCR with β-actin as endogenous control. Protein expression was measured by Western blot analysis and quantified as a ratio to the house keeping protein β-actin (antibodies: T9450, Sigma-Aldrich, MO; 4970, Cell Signaling, MA). […] Values shown are the mean ±SEM.

tau protein = assay: total tau protein levels in mouse cortex by Western blot; assay type: in vivo, mice; details: 0, 5 and 50 mg/kg/day for 34 days; vs control; p<0.05; dose of the value not stated
Procedure: as §1

CDK5 [1] = assay: CDK5 gene expression in the cerebral cortex; assay type: in vivo, mice; details: daily administration for a month; 5 and 50 mg/kg groups vs control, p<0.05
Procedure: (§2) Since Sp1 also regulates CDK5 activators, the effects of tolfenamic acid on CDK5 were also tested. […] 3A (using one-way ANOVA F(2,13)=59.647, p=2.8×10^−7 Tukey-Kramer post-test p<0.05 for the C vs the 5 mg/kg group and for the C vs the 50 mg/kg group). […] When comparing the 50 mg/kg dose group to the control however, by Tukey-Kramer test, the 40% lowering in CDK5 from control was statistically significant (p<0.05).

CDK5 [2] = assay: CDK5 protein levels after tolfenamic acid treatment; assay type: in vivo, mice
Procedure: as §2

[3] = test system: tau phosphorylated at Ser 235; assay: P-tau at Ser 235 by Western blotting; assay type: in vivo, mice; details: 5 and 50 mg/kg groups vs control, p<0.05
Procedure: (§3) As phosphorylation of tau affects its function and its ability to bind to microtubules, it was important to test how phosphorylated tau is affected by the treatment. P-tau levels were analyzed by Western blotting using specific antibodies. P-tau at Ser 235 (as shown in FIG. 4A) and P-tau at Thr 181 (as shown in FIG. 4B) were lowered by both doses of tolfenamic acid as shown in FIGS. 4A and 4B. Tau phosphorylated at Ser 235 was lowered by about 15% as indicated by one-way ANOVA (F(2,11)=6.105, p=0.0165), Tukey-Kramer post-test p<0.05 for the C vs the 5 mg/kg group and for the C vs the 50 mg/kg group. P-tau at Thr 181 was lowered by about 30%, one-way ANOVA F(2,10)=7.272, p=0.0112, Tukey-Kramer post-test p<0.05 for the C vs the 5 mg/kg group and for the C vs the 50 mg/kg group.

[4] = test system: tau phosphorylated at Thr 181; assay: P-tau at Thr 181 by Western blotting; assay type: in vivo, mice; details: 5 and 50 mg/kg groups vs control, p<0.05
Procedure: as §3

[5] = test system: homozygous APP YAC transgenic mice, line R1.40; assay: Morris water maze, learning and long-term memory; assay type: in vivo
Procedure: In order to examine the ability of tolfenamic acid to improve the learning and memory deficits in AD transgenic mice model, male and female homozygous APP YAC transgenic, line R1.40, and wild type C57BL/6 mice aging between 20-24 months were used. Four groups of similar age and gender variation were administered vehicle or tolfenamic acid daily via oral gavages for 34 days; one transgenic group was administered 5 mg/kg/day tolfenamic acid in corn oil (n=7); the second transgenic group was administered 50 mg/kg/day tolfenamic acid in corn oil (n=7), the third transgenic group was administered corn oil, the vehicle, and the last group which consisted of wild type C57BL/6 mice was administered vehicle (n=8). After 14 days of daily dosing, mice were tested in Morris water maze. In this task, the mice had to locate the hidden platform by learning multiple spatial relationships between the platform and the distal extra-maze cues. On the first day, mice received a habituation trial in which they were allowed to swim freely for 60 seconds. On the following day and for a total of 8 days, mice received training sessions of 3 trials daily. The starting position for each trial was randomly assigned between the four possible positions while the platform position was fixed in each trial. Each animal was allowed to swim until they find the immersed hidden platform or for a maximum of 60 seconds. […]

[6] = test system: homozygous APP YAC transgenic mice, line R1.40; assay: Y-maze spontaneous alternation, working memory; assay type: in vivo; details: day 33
Procedure: In order to examine the ability of tolfenamic acid to improve the learning and memory deficits in AD transgenic mice model, male and female homozygous APP YAC transgenic, line R1.40, and wild type C57BL/6 mice aging between 20-24 months were used. Four groups of similar age and gender variation were administered vehicle or tolfenamic acid daily via oral gavages for 34 days; one transgenic group was administered 5 mg/kg/day tolfenamic acid in corn oil (n=7); the second transgenic group was administered 50 mg/kg/day tolfenamic acid in corn oil (n=7), the third transgenic group was administered corn oil, the vehicle, and the last group which consisted of wild type C57BL/6 mice was administered vehicle (n=8). Upon conducting the 8 acquisition sessions, probe trials on Day 1 and Day 11 following the last day of training were performed to assess the long-term memory retention by studying the preference of the mice to the correct quadrant that contained the hidden platform. On day 33, mice were tested for spontaneous alternation in Y-maze, defined as the percentage of the number of arm entries different from the previous two entries divided by the total arm entries minus two. Finally, on Day 35, mice were euthanized and brain tissue was removed and stored at −80° C.

Cc1c(Cl)cccc1Nc1ccccc1C(=O)O [tolfenamic acid]
lowering of tau mRNA expression (tau gene): 48% | reduction of total tau protein levels (tau protein): 46% | lowering of CDK5 gene expression in the cerebral cortex (CDK5 [1]): about 50% | lowering in CDK5 levels from control (CDK5 [2]; 50 mg/kg dose group vs control, Tukey-Kramer p<0.05): 40% | CDK5 levels, lowering trend by one-way ANOVA (CDK5 [2]; all dose groups, one-way ANOVA F(2,8)=4.086, p=0.059): not significant | lowering of tau phosphorylated at Ser 235 [3]: about 15% | lowering of P-tau at Thr 181 [4]: about 30% | % time spent in the target quadrant, probe trials (long-term memory retention) ([5]; 5 and 50 mg/kg/day, Day 1 and 11 following the 8 daily training sessions): significant increase | spatial learning profile (escape latency) in daily trials ([5]; both doses (5 and 50 mg/kg/day), oral gavage, transgenic mice 20-24 months): improved | improvement in the behavioral profile (spontaneous alternation, Y-maze) ([6]; 5 mg/kg/day): did not reach significance | increase in the spontaneous alternation ratio in Y-maze ([6]; 50 mg/kg/day): significant
